Experimental data taken from patent US20240173380A1, “CONNEXIN 43 FOR USE IN THE TREATMENT OF A CANCER TYPE CHARACTERIZED BY THE ACTIVATION OF A MITOGEN-ACTIVATED PROTEIN KINASE” (FUNDACIÓN PROFESOR NOVOA SANTOS, priority 2020, published 2024).
Structures can show the parent of a compound that is named as a salt.

Experiments:
Type in all cases: cell-based, human
A375 tumour cell line = experiment: Cellular senescence: SA-β-Gal staining and flow cytometry
Method: The detection of SA-β-Gal activity was measured using the Senescence Cells Histochemical Staining Kit (Sigma-Aldrich). Cells were rinsed with warm PBS and fixed for 7 min at RT with a fixation buffer composed by 2% paraformaldehyde and 0.2% glutaraldehyde. After three washed with PBS, cells were incubated for 6 h or O/N at 37° C. without CO2 in a staining solution containing X-gal. This lactose analogue can be cleaved by β-galactosidase producing a blue insoluble product. Finally, cells were washed with PBS and images were taken using a light microscope.
SA-β-Gal activity was analyzed with the fluorogenic β-Galactosidase substrate di-β-D-galactopyranoside (FDG, Thermo Fisher Scientific), which is hydrolyzed by the endogenous β-galactosidase to fluorescein (FITC). Cells were harvested and incubated in a staining medium (PBS, 4% FBS, 10 mM HEPES, pH 7.2) at 37° C. for 10 min. The β-Galactosidase assay was started by adding warm 2 mM FDG to the cell suspension and after incubating for 3 min at 37° C. in the dark. The reaction was stopped with the addiction of ice-cold staining medium to the cells, which were kept on ice protected from light. […] was used for fluorescein and acquiring 20,000 event per triplicate. Data was analyzed using the FCS Express 6 Flow software.

[1] = tested on: A375 melanoma cells (BRAF mutation); experiment: Cell proliferation and colony formation (xCELLigence, CCK-8, clonogenic assay)
Method: Dojindo's highly water-soluble tetrazolium salt (WST-8) is reduced by dehydrogenase activity in cells to give a yellow-color formazan dye, which is soluble in the tissue culture media. The amount of the formazan dye generated by dehydrogenases is directly proportional to the number of living cells. Equal number of cells (1000-2000 cells) were seeded per triplicate in 96-well plates and cultured in the different conditions. Medium was replaced by 100 μL of fresh medium and 10 μL of CCK-8 reagent was added per well. After an incubation for 1 to 4 h at 37° C., absorbance was measured at 450 nm in a NanoQuant microplate reader Infinite M200 (TECAN). Results were calculated as optical density (OD) 450 nm=OD of sample−OD of blank.
The E8 xCELLigence plates were prepared by addition of 100 μL of complete media to every well. After incubation at 37° C., plates were inserted into the xCELLigence station, and the base-line impedance was measured to ensure that all wells and connections were working. Following harvesting and counting, cells were diluted to the selected seeding density and 100 μl of cells in culture medium was added to each well. For the cell proliferation assays for each condition, 1×10^3-5×10^3 cells/well was seeded into 100 μL of media in the E-Plate L8 (Acea Biosciences). The attachment and proliferation of the cells were monitored every 30 min. Cell proliferation was monitored for 48-72 h. Cell Index at each time point is defined as (Rn−Rb)/15, where Rn is the cell-electrode impedance of the well when it contains cells and Rb is the background impedance of the well with the media alone. For the cell adhesion assays, for each condition, 1×10^3-5×10^3 cells/well was seeded into 100 μL of media in E-Plate L8 (Acea Biosciences). Cell proliferation was monitored for 1 h every 10 sec. The extend of cell adhesion and spreading was monitored every min for 1-3 h. Cell Index at each time point is defined as (Rn−Rb)/15, where Rn is the cell-electrode impedance of the well when it contains cells and Rb is the background impedance of the well with the media alone.
(§1) Colony formation assays were performed by seeding 5×10^3 to 5×10^4 cells per well onto 6-12 well plates and grown for 7-15 days. The culture medium was replaced every 48 h. The cells were washed with warm Saline Solution and fixed with cold 2% PFA for 15 min. Cells were washed with 1×PBS and stained with 0.1% of crystal violet (Sigma-Aldrich) for 15 min. After staining, the cells were washed with distilled water and dried at room temperature. The colonies were quantified by diluting crystal violet in 5% acetic acid and 100 μL of the solution was collected to measure the absorbance at 570 nm using a NanoQuant microplate reader Infinite M200 (TECAN).

[2] = tested on: A375 cells resistant to BRAF/MEKi (DR); experiment: Apoptosis assay (PI/YO-PRO-1) in double resistant cells; conditions: DR A375 cells transfected with Cx43 vector
Method: The BRAF mutated tumour cell lines A375 (melanoma), SK-Mel-28 (melanoma), MDA-MB-231 (human breast cancer) and HT-29 (human colorectal adenocarcinoma) were also used to test the role of Cx43 in drug resistance. SK-Mel147 (melanoma), NRAS mutated cell line was selected to compare the results with BRAF mutant cell lines. Cells were cultured in Dulbecco's modified Eagle's medium (DMEM) (Lonza) supplemented with 10% fetal bovine serum (FBS) (Gibco, Thermo Fisher Scientific) and 100 U/mL penicillin and 100 μg/ml streptomycin (Gibco, Thermo Fisher Scientific). […] After adding DMEM supplemented with 10% FBS, cells were transferred to falcon tube and counted using the Neubauer chamber method in a light microscope. […]
Supernatants (died cells) were aspirated and attached cells were harvested. Supernatants and cells were mixed, counted and 1 million cells were resuspended in 1 mL in flow cytometry (FC) buffer. […] After the incubation time (PI/YO-PRO) samples were analyzed in a FACs Scalibur acquiring 20,000 event per triplicate. The red fluorescence emitted by PI was detected at 610 nm and the green florescence emitted by YO-PRO was detected at 515 nm. Data was analyzed using the FCS Express 6 Flow software.

A375 melanoma cells = experiment: Apoptosis assay, PI/YO-PRO-1 double staining, flow cytometry
Method: Supernatants (died cells) were aspirated and attached cells were harvested. Supernatants and cells were mixed, counted and 1 million cells were resuspended in 1 mL in flow cytometry (FC) buffer. Membrane viability analysis was performed by double staining PI/YO-PRO-1. YO-PRO-1 (Invitrogen) was added to the cells (150 nM) and incubated 10 min in the dark at 4° C. PI (Invitrogen) was added (2 μg/mL) and incubated for 5 min in the dark at 4° C. After the incubation time (PI/YO-PRO) samples were analyzed in a FACs Scalibur acquiring 20,000 event per triplicate. The red fluorescence emitted by PI was detected at 610 nm and the green florescence emitted by YO-PRO was detected at 515 nm. Data was analyzed using the FCS Express 6 Flow software.

[3] = tested on: p53 and p16 in A375 cells; experiment: Western blot of senescence biomarkers p53 and p16; conditions: Cx43 cells vs cells transfected with empty vector
Source text: (§2) The insoluble fraction was resuspended in lysis buffer (membrane).

A375 cell line = experiment: Gap junction intercellular communication: scrape loading and dye transfer; conditions: A375 transfected with Cx43 vector vs empty vector (EV)
Method: Cells were seeded on 6 or 12 wells and cultured until 80-100% of confluence and rinsed twice with warm PBS. Lucifer Yellow CH dilithium salt (1 mg/mL) (LY: Cell Projects Ltd© Kent) in PBS was added to the cells and parallel cuts (3 cuts per well) were performed with a surgical blade (Swann-Mortonscalpel®). After 3-5 min at 37° C. cells were washed with PBS and fixed 2% PFA in PBS. LY becomes incorporated by cells along the cut and move from the dye-loaded cells into adjacent ones connected by functional gap junction channels. The areas for LY loading were randomly selected in the central part of wells to obtain the images for quantification. Images were captured with 10× objective using a Nikon Eclipse Ti fluorescent microscope. The constant exposures were used for all images for a given experiment. Ten images per sample were quantified. The score was calculated as the ratio of the number of non-damage LY positive cells at the edge and the number of the LY positive cells outside the edge.
Cells were seeded on 12-wells plated and cultured until 80-100% of confluence. […] The fluorescence emitted was measured at 640/40 nm and 540/40 nm with two photodetectors, the time course of the passage of dye from the injected cell to the adjacent cells was studied.

[4] = tested on: cleaved caspase 3 in A375 cells; experiment: Cleaved caspase 3 western blot
Source text: as §2

[5] = tested on: HT29 colorectal cancer cells (BRAF mutation); experiment: Colony formation assay; conditions: HT29 transfected with Cx43 vector vs EV
Method: as §1

[6] = tested on: Sk-Mel-147 melanoma cells (NRAS mutation); experiment: Colony formation assay; conditions: Sk-Mel-147 transfected with Cx43 vector
Method: as §1

[7] = tested on: MDA-MB-231 breast cancer cells (BRAF mutation); experiment: Colony formation assay; conditions: MDA-MB-231 transfected with Cx43 vector vs EV
Method: as §1

Compound | cellular senescence (flow cytometry, β-Gal staining) (A375 tumour cell line; A375-Cx43 vs A375-EV under 100 nM dabra and 1 nM trame for 5 days) | cellular senescence (ß-Galactosidase activity) (A375 tumour cell line; Cx43 re-expression by vector in A375, no drug) | cell proliferation and colony formation capacity ([1]; A375-Cx43 after 1-2 weeks and 4 months under 1 nM T/100 nM D) | cells detected ([1]; A375-Cx43 after 2 weeks under 1 nM T/100 nM D) | proliferation rate ([1]; A375 transfected with Cx43 vector vs empty vector, xCelligence, colony formation, CCK8) | capacity to form colonies ([1]; A375 with Cx43 vector plus different concentrations of dabrafenib and trametinib for 7 days) | MFI ratio of apoptotic cells [2] | apoptosis (A375 melanoma cells; A375-Cx43 under BRAF/MEKi treatment (100 nM dabra, 1 nM trame, 5 days)) | basal percentage of early apoptotic cells (A375 melanoma cells; Cx43 overexpressing A375 vs empty vector) | levels of senescent biomarkers p53 and p16 [3] | dye coupling (GJIC) (A375 cell line) | levels of cleaved caspase-3 ([4]; Cx43 overexpression in combination with BRAF/MEKi (1/100 nM T/D, 5 days)) | levels of cleaved caspase-3 ([4]; Cx43 overexpression with BRAF/MEKi (T/D 4 days) followed by 24 h 3.5 μM NAV) | capacity to form colonies [5] | capacity to form colonies [6] | capacity to form colonies [7] | colony formation capacity ([1]; 100 μM CBX for 7 days, A375 EV and Cx43-overexpressing cells)
Cx43: channel protein Connexin 43, restored in tumour cells with a pIRESpuro2 plasmid containing the human Cx43 sequence | enhanced cellular senescence | increases cellular senescence | significantly less cell proliferation and colony formation capacity | Almost no cells were detected | significant reduction in the proliferation rate | significantly decreases the capacity to form colonies | increases the MFI ratio of apoptotic cells | increases cellular senescence and apoptosis | significantly higher | higher levels of the senescent biomarkers p53 and p16 than control cells | increased levels of dye coupling compared with control EV | showed the highest levels of cleavage caspase-3 | showed the highest levels of cleavage caspase-3 | significantly decreases the capacity to form colonies | significantly decreases the capacity to form colonies | significantly decreases the capacity to form colonies | –
CC1(C)[C@@H](OC(=O)CCC(=O)O)CC[C@]2(C)[C@H]3C(=O)C=C4[C@@H]5C[C@@](C)(C(=O)O)CC[C@]5(C)CC[C@@]4(C)[C@]3(C)CC[C@@H]12 [CBX, Carbenoloxolone disodium salt, reference compound] | – | – | – | – | – | – | – | – | – | – | – | – | – | – | – | – | No changes were detected in colony formation capacity
